Converted amounts (≈) assume the structure as drawn.
Assays:
SF268 glioblastoma cells = assay: MTT cytotoxicity in the glioblastoma cell line SF268 (single-concentration screening and IC50); assay type: cell-based, Human; conditions: for activity at 10 µg/mL / IC50: Homo sapiens; for activity at 10 µg/mL: SF-268, 48 h, read-out: Growth Screening (%RG); for IC50: SF-268; for Selectivity Index (SI): Vero versus SF268
Experimental: Cultures were maintained at 37 °C in a 5% CO2 atmosphere and split by trypsin treatment once per week to maintain confluence.
RPMI without cells was used as a color control, and doxorubicin was used as an inhibition control. After treatment, MTT was added to each well, and the absorbance at 570 nm was determined 4 h later using a color plate reader. All bioassays were performed in duplicate, and the IC50 values were determined by the Data Analysis complement Wizard of Excel 2000 (Microsoft, Seattle, WA, USA).

Vero cells = assay: Mammalian cytotoxicity, MTT assay in Vero cells; assay type: cell-based; conditions: 48 h; for IC50: Chlorocebus sabaeus
Experimental: Grade IV SF268 glioblastoma cells and Vero epithelial cells were obtained from ATCC and cultured in complete medium consisting of Roswell Park Memorial Institute medium (RPMI-1640) supplemented with 0.05% gentamicin (50 mg/mL) and 10% FBS (fetal bovine serum; Gibco, Invitrogen, Carlsbad, CA, USA). Cultures were maintained at 37 °C in a 5% CO2 atmosphere and split by trypsin treatment once per week to maintain confluence.
For the cytotoxicity assays, Vero cells were cultivated in 96-well plates at 37 °C under a 5% CO2 atmosphere using RPMI-1640 medium with 0.05% gentamicin (50 mg/mL) and 10% FBS (fetal bovine serum). Vero cells were allowed to adhere for 24 h before being incubated for 48 h with the samples. During the treatment, dimethyl sulfoxide (DMSO) was used as a negative control, curcumin (1) was used as a control, and samples were assayed at four different concentrations. After incubation, MTT (3-(4,5-di-methyl-thiazol-2-yl)-2,5-diphenyl-tetrazolium bromide) was added to each well, and the absorbance at 570 nm was determined 4 h later using a color plate reader. Cytotoxicity was evaluated colorimetrically by calculating the ability of the remaining living Vero cells to reduce the pale yellow MTT to the black–purple formazan product, as previously described. All bioassays were performed in duplicate, and the inhibitory concentration (IC50) values were determined using the Data Analysis complement Wizard of Excel 2000 (Microsoft, Seattle, WA, USA).

[1] = SF268, single concentration 10 µg/mL, 48 h, MTT, percentage of relative growth

Row | Molecule | activity at 10 µg/mL (SF268 glioblastoma cells; [1]) [%] | also measured
1 | 1,7-bis(4-hydroxy-3-methoxyphenyl)hepta-1,6-diene-3,5-dione [Compound 1, reference compound] | – | IC50 SF268 (SF268 glioblastoma cells; SF268, 48 h, MTT): 6.3 µg/mL; IC50 VERO (Vero cells): 15.9 µg/mL
2 | COc1cc(/C=C/C(=O)/C=C(O)/C=C/c2ccc(OC(C)=O)c(OC)c2)ccc1OC(C)=O [Compound 4, (1E,3Z,6E)-3-hydroxy-5-oxohepta-1,3,6-triene-1,7-diyl)bis(2-methoxy-4,1-phenylene) diacetate] | ≤ 40 | IC50 (SF268 glioblastoma cells; SF268, 48 h, MTT): 2.45 µg/mL; Selectivity Index (SI) (SF268 glioblastoma cells): 17.16; IC50 (Vero cells): 42.1 µg/mL
3 | COc1cc(/C=C/C(O)=C/C(=O)/C=C/c2ccc(OC(=O)CCC(=O)O[C@@H]3C[C@H](C)CC[C@H]3C(C)C)c(OC)c2)ccc1O [Compound 7] | 50.9 | –
4 | COc1cc(C=CC(=O)C=C(O)C=Cc2ccc(OC(=O)CCC(=O)OC3CC(C)CCC3C(C)C)c(OC)c2)ccc1OC(=O)CCC(=O)OC1CC(C)CCC1C(C)C (stereo not drawn) [Compound 8] | 55.2 | –
5 | COc1cc(/C=C/C(O)=C/C(=O)/C=C/c2ccc(OC(=O)CCC(=O)OC3C4CC5CC(C4)CC3C5)c(OC)c2)ccc1O (stereo not drawn) [Compound 9] | 45.6 | –
6 | COc1cc(/C=C/C(=O)/C=C(O)/C=C/c2ccc(OC(=O)CCC(=O)OC3C4CC5CC(C4)CC3C5)c(OC)c2)ccc1OC(=O)CCC(=O)OC1C2CC3CC(C2)CC1C3 (stereo not drawn) [Compound 10] | 52 | –
7 | C=CCOC(=O)CCC(=O)Oc1ccc(/C=C/C(=O)/C=C(O)/C=C/c2ccc(OC(=O)CCC(=O)OCC=C)c(OC)c2)cc1OC [Compound 12, Diallyl O,O′-(((1E,3Z,6E)-3-hydroxy-5-oxohepta-1,3,6-triene-1,7-diyl)bis(2-methoxy-4,1-phenylene)) disuccinate] | 49.2 | –
8 | COc1cc(/C=C/C(=O)/C=C(O)/C=C/c2ccc(OC(=O)CCC(=O)OCc3ccccc3)c(OC)c2)ccc1OC(=O)CCC(=O)OCc1ccccc1 [Compound 14, Dibenzyl O,O′-(((1E,3Z,6E)-3-hydroxy-5-oxohepta-1,3,6-triene-1,7-diyl)bis(2-methoxy-4,1-phenylene)) disuccinate] | 85.1 | –
9 | COc1cc(/C=C/C(O)=C/C(=O)/C=C/c2ccc(OC(=O)CCC(=O)OC(c3ccccc3)C3CCCCC3)c(OC)c2)ccc1O (stereo not drawn) [Compound 15] | 47.9 | –
10 | COc1cc(/C=C/C(=O)/C=C(O)/C=C/c2ccc(OC(=O)CCC(=O)OC(c3ccccc3)C3CCCCC3)c(OC)c2)ccc1OC(=O)CCC(=O)OC(c1ccccc1)C1CCCCC1 (stereo not drawn) [Compound 16] | 57.2 | –
11 | COc1cc(/C=C/C(O)=C/C(=O)/C=C/c2ccc(OC(=O)CCC(=O)OC3CCCc4ccccc43)c(OC)c2)ccc1O (stereo not drawn) [Compound 17] | 46.8 | –
12 | COc1cc(/C=C/C(=O)/C=C(O)/C=C/c2ccc(OC(=O)CCC(=O)OC3Cc4ccccc4C3)c(OC)c2)ccc1OC(=O)CCC(=O)OC1Cc2ccccc2C1 [Compound 18] | 62.9 | –
13 | COc1cc(/C=C/C(O)=C/C(=O)/C=C/c2ccc(OC(=O)CCC(=O)OC3c4ccccc4-c4ccccc43)c(OC)c2)ccc1O [Compound 19] | ≤ 40 | IC50 (SF268 glioblastoma cells; SF268, 48 h, MTT): 1.11 µg/mL (≈ 1.75 µM); Selectivity Index (SI) (SF268 glioblastoma cells): 13.71; IC50 (Vero cells): 15.2 µg/mL (≈ 24 µM)
14 | COc1cc(/C=C/C(=O)/C=C(O)/C=C/c2ccc(OC(=O)CCC(=O)OC3c4ccccc4-c4ccccc43)c(OC)c2)ccc1OC(=O)CCC(=O)OC1c2ccccc2-c2ccccc21 [Compound 20] | 63 | –
15 | COc1cc(/C=C/C(O)=C/C(=O)/C=C/c2ccc(OC(=O)CCC(=O)OC(c3ccccc3)c3ccccc3)c(OC)c2)ccc1O [Compound 21] | ≤ 40 | IC50 (SF268 glioblastoma cells; SF268, 48 h, MTT): 36.4 µg/mL (≈ 57.4 µM); Selectivity Index (SI) (SF268 glioblastoma cells): 1.26; IC50 (Vero cells): 46 µg/mL (≈ 72.5 µM)
16 | COc1cc(/C=C/C(O)=C/C(=O)/C=C/c2ccc(OC(=O)CCC(=O)OCc3ccc4c(c3)C(=O)c3ccccc3C4=O)c(OC)c2)ccc1O [Compound 22] | ≤ 40 | IC50 (SF268 glioblastoma cells; SF268, 48 h, MTT): 58.9 µg/mL (≈ 85.5 µM); Selectivity Index (SI) (SF268 glioblastoma cells): 1.19; IC50 (Vero cells): 72.8 µg/mL (≈ 106 µM)
17 | Benzyl (4-((1E,3Z,6E)-3-hydroxy-7-(4-hydroxy-3-methoxyphenyl)-5-oxohepta-1,3,6-trien-1-yl)-2-methoxyphenyl) succinate [Compound 13] | – | Growth Screening (%RG) (SF268 glioblastoma cells; [1]): 49.88%

Reference: PMC12389136, “Insights into the Structural Patterns in Human Glioblastoma Cell Line SF268 Activity and ADMET Prediction of Curcumin Derivatives” (Pharmaceutics, 2025)
